Measurements reported in ChEMBL document CHEMBL4715686, “Differently fluorescence-labelled dibenzodiazepinone-type muscarinic acetylcholine receptor ligands with high M2R affinity” (RSC Med Chem, 2020).

Legend:
[1] = target: T1, Muscarinic acetylcholine receptor M2 (Homo sapiens, UniProt P08172); assay: Displacement of [3H]-NMS from muscarinic M2 receptor (unknown origin) expressed in A9 cells by scintillation counting analysis; format: cell-based
[2] = target: T2, Muscarinic acetylcholine receptor M4 (Homo sapiens, UniProt P08173); assay: Displacement of [3H]-NMS from muscarinic M4 receptor (unknown origin) expressed in NG108-15 cells by scintillation counting analysis; format: cell-based
T2 sequence (P08173 whole entry): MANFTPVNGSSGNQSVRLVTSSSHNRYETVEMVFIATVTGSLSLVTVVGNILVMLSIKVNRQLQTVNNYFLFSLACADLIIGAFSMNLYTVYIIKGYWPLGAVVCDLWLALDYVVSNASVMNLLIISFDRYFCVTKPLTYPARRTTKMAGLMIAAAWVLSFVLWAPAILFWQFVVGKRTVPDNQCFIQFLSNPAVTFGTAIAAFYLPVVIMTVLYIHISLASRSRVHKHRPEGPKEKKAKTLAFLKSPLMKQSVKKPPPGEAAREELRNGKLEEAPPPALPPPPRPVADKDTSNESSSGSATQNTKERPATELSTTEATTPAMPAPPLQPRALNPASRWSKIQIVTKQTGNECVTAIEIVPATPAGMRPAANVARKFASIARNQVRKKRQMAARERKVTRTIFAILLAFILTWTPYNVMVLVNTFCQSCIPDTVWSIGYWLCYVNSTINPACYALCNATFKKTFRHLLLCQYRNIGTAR

[3] = target: T3, Muscarinic acetylcholine receptor M1 (Homo sapiens, UniProt P11229); assay: Displacement of [3H]NMS from human recombinant muscarinic receptor M1 expressed in CHO-K9 cell membranes measured after 3 hrs by radioligand competition binding assay; design: species or system Membrane
T3 sequence (P11229 whole entry): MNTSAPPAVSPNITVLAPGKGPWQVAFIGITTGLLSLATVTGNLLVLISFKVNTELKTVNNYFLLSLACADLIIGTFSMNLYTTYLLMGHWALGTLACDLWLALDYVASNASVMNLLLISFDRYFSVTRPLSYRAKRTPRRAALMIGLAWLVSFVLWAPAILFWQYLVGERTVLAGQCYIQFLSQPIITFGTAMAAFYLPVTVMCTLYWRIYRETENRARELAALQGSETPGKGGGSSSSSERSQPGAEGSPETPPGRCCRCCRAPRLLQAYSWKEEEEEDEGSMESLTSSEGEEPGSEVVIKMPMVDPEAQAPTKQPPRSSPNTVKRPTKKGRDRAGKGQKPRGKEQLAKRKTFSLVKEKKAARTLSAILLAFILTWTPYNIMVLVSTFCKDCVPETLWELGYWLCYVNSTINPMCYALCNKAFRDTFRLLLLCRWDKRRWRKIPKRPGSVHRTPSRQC

[4] = target: T1, Muscarinic acetylcholine receptor M2; assay: Displacement of [3H]NMS from human recombinant muscarinic receptor M2 expressed in CHO-K9 cell membranes measured after 3 hrs by radioligand competition binding assay; design: species or system Membrane
[5] = target: T4, Muscarinic acetylcholine receptor M2 (Homo sapiens, UniProt P08172); assay: Binding affinity to human muscarinic M2 receptor expressed in CHO-K9 cells assessed as unspecific binding at Kd incubated in dark at 22 degree C for 2 hrs in presence of atropine by FACSCantoII flow cytometric saturation binding study relative to control; format: cell-based
T4 sequence (P08172 whole entry): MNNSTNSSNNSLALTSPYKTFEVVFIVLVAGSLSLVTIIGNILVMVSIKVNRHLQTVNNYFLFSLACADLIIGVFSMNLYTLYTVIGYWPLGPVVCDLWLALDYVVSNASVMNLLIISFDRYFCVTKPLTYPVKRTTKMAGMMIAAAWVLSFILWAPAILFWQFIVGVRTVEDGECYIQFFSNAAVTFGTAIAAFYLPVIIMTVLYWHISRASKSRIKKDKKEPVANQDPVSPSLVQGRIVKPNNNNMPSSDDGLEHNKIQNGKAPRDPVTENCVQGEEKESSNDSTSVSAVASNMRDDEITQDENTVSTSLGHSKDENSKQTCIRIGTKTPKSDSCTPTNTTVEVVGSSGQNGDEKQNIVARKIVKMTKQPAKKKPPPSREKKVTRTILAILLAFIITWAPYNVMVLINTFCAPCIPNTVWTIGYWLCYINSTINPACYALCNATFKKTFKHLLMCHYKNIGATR

[6] = target: Muscarinic acetylcholine receptor M3 (Homo sapiens, UniProt P20309); assay: Displacement of [3H]NMS from human recombinant muscarinic receptor M3 expressed in CHO-K9 cell membranes measured after 3 hrs by radioligand competition binding assay; design: species or system Membrane
Muscarinic acetylcholine receptor M3, sequence (P20309 whole entry): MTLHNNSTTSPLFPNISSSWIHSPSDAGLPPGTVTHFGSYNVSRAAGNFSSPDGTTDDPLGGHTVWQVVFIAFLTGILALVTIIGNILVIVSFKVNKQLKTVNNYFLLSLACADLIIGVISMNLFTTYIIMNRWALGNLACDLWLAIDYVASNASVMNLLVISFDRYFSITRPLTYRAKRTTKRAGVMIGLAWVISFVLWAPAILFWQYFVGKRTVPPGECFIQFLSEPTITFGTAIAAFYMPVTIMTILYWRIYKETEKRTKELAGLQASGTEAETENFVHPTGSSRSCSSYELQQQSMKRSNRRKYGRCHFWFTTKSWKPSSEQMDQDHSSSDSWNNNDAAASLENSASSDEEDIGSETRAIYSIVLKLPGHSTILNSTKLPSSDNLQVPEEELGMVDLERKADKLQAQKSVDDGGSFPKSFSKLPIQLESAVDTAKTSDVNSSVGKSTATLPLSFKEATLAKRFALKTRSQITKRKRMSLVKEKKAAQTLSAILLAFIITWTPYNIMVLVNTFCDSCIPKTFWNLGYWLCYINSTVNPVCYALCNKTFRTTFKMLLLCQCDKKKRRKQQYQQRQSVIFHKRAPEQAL

[7] = target: T2, Muscarinic acetylcholine receptor M4; assay: Displacement of [3H]NMS from human recombinant muscarinic receptor M4 expressed in CHO-K9 cell membranes measured after 3 hrs by radioligand competition binding assay; design: species or system Membrane
[8] = target: T5, Muscarinic acetylcholine receptor M5 (Homo sapiens, UniProt P08912); assay: Displacement of [3H]NMS from human recombinant muscarinic receptor M5 expressed in CHO-K9 cell membranes measured after 3 hrs by radioligand competition binding assay; design: species or system Membrane
T5 sequence (P08912 whole entry): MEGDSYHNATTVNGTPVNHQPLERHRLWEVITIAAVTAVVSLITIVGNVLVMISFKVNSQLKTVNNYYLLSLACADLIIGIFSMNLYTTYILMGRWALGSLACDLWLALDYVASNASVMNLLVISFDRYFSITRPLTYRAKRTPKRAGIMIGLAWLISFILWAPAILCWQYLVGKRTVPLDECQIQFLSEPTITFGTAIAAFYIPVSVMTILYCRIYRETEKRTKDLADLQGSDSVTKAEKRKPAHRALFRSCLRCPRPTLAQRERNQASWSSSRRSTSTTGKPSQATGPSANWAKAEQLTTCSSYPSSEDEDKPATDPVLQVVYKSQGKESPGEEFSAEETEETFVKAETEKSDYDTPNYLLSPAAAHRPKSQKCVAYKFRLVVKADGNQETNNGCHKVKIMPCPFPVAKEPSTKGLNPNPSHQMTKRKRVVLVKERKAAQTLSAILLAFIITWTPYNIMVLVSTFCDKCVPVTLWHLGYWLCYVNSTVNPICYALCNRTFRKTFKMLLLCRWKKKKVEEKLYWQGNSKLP

[9] = target: T4, Muscarinic acetylcholine receptor M2; assay: Binding affinity to human muscarinic M2 receptor expressed in CHO-K9 cells assessed as unspecific binding at Kd incubated in dark at 22 degree C for 2 hrs in presence of atropine by FACSCalibur flow cytometric saturation binding study relative to control; format: cell-based

Structure (SMILES) | Ki [1] | Ki [2] | Ki [3] | Ki [4] | Kd ([5]; read-out: Kd) | Kd ([5]; read-out: pKd (converted)) | Ki [6] | Ki [7] | Ki [8] | Kd ([9]; read-out: Kd) | Kd ([9]; read-out: pKd (converted))
CCN(CC)CCCCC1CCN(CC(=O)N2c3ccccc3NC(=O)c3ccccc32)CC1 | 0.316 nM | 2 nM | – | – | – | – | – | – | – | – | –
Cc1cc(/C=C/C=C/c2ccc(N(C)C)cc2)cc(C)[n+]1CCN1CCN(CCCCC2CCN(CC(=O)N3c4ccccc4NC(=O)c4ccccc43)CC2)CC1 | – | – | – | – | 1.4 nM | 2.34 nM | – | – | – | – | –
Cc1cc(/C=C/c2cc3c4c(c2)CCCN4CCC3)cc(C)[n+]1CCNC(=O)CCc1cn(CCCCC2CCN(CC(=O)N3c4ccccc4NC(=O)c4ccccc43)CC2)cn1 | – | – | 7.08 nM | 1.35 nM | 3.8 nM | 2 nM | 69.2 nM | 2.63 nM | 40.7 nM | – | –
CN(C)c1ccc2c(-c3ccc(C(=O)NCCNC(=O)CCc4cn(CCCCC5CCN(CC(=O)N6c7ccccc7NC(=O)c7ccccc76)CC5)cn4)cc3C(=O)[O-])c3ccc(=[N+](C)C)cc-3oc2c1 | – | – | 6.17 nM | 1.78 nM | 2.4 nM | 4.37 nM | 129 nM | 3.72 nM | 275 nM | – | –
Cc1scc2c1N(C(=O)CN1CCN(CCCCCCCCCCNC(=O)c3ccc(-c4c5ccc(=N)c(S(=O)(=O)O)c-5oc5c(S(=O)(=O)O)c(N)ccc45)c(C(=O)O)c3)CC1)c1ccccc1NC2=O | – | – | 0.501 nM | 1.58 nM | – | – | – | – | – | – | –

Continued by falling Ki [4], values first:

Ki [1] | Ki [2] | Ki [3] | Ki [4] | Kd ([5]; read-out: Kd) | Kd ([5]; read-out: pKd (converted)) | Ki [6] | Ki [7] | Ki [8] | Kd ([9]; read-out: Kd) | Kd ([9]; read-out: pKd (converted)) | Structure (SMILES)
– | – | 4.79 nM | 0.955 nM | 1.9 nM | 0.646 nM | 63.1 nM | 2.69 nM | 126 nM | – | – | Cc1cc(/C=C/c2cc3c4c(c2)CCCN4CCC3)cc(C)[n+]1CCN1CCN(CCCCC2CCN(CC(=O)N3c4ccccc4NC(=O)c4ccccc43)CC2)CC1
– | – | 4.9 nM | 0.912 nM | 2 nM | – | 85.1 nM | 4.27 nM | 70.8 nM | – | – | Cc1cc(/C=C/C=C/c2ccc(N(C)C)cc2)cc(C)[n+]1CCNC(=O)CCc1cn(CCCCC2CCN(CC(=O)N3c4ccccc4NC(=O)c4ccccc43)CC2)cn1
– | – | 1 nM | 0.692 nM | 4.5 nM | 3.89 nM | 37.2 nM | 0.417 nM | 10 nM | – | – | O=C(CCCCCNC(=O)COc1ccc(/C=C/C2=[N+]3C(=Cc4ccc(-c5cccs5)n4[B-]3(F)F)C=C2)cc1)NCCNC(=O)CCc1cn(CCCCC2CCN(CC(=O)N3c4ccccc4NC(=O)c4ccccc43)CC2)cn1
– | – | – | 0.562 nM | – | – | – | – | – | – | – | NCCN1CCN(CCCCC2CCN(CC(=O)N3c4ccccc4NC(=O)c4ccccc43)CC2)CC1
– | – | 2.57 nM | 0.24 nM | – | – | 81.3 nM | 0.977 nM | 178 nM | 0.6 nM | 1.38 nM | CN(C)c1ccc2c(-c3ccc(C(=O)NCCN4CCN(CCCCC5CCN(CC(=O)N6c7ccccc7NC(=O)c7ccccc76)CC5)CC4)cc3C(=O)[O-])c3ccc(=[N+](C)C)cc-3oc2c1
– | – | 0.0316 nM | 0.0398 nM | – | – | – | – | – | – | – | Cc1scc2c1N(C(=O)CN1CCN(CCCCCCCCCCNC(=O)Cc3ccc4c(c3)C(C)(C)C3=C5C=C6C7=[N+](CCC6OC5CCN34)c3ccc(S(=O)(=O)[O-])cc3C7(C)C)CC1)c1ccccc1NC2=O (stereo not given)
